Measured values reported in publication PMC4716659 (European journal of medicinal chemistry, 2015).
In brackets after ≈: the same amount, converted by molar mass.

Experiments:
[1] = test system: methicillin-resistant Staphylococcus aureus (MRSA) ATCC 43300; assay: MIC, broth microdilution; type: cell-based; settings: MRSA ATCC 43300
S. aureus NRS1 (VISA) [2] = assay: MIC, broth microdilution; type: cell-based, Staphylococcus aureus; settings: Staphylococcus aureus, NRS1|VISA
S. aureus NRS19 (VISA) [3] = assay: MBC, plating onto TSA; type: cell-based, Staphylococcus aureus; settings: Staphylococcus aureus, NRS19|VISA
[4] = test system: S. aureus ATCC 43300 (MRSA); assay: MBC, plating onto TSA; type: cell-based, Staphylococcus aureus; settings: Staphylococcus aureus, ATCC43300|MRSA
S. aureus USA300 (MRSA) [5] = assay: MBC, plating onto TSA; type: cell-based, Staphylococcus aureus; settings: Staphylococcus aureus, MRSA|USA300
S. aureus NRS37 (VISA) [6] = assay: MBC, plating onto TSA; type: cell-based, Staphylococcus aureus; settings: Staphylococcus aureus, NRS37|VISA
S. aureus NRS119 (MRSA) [7] = assay: MBC, plating onto TSA; type: cell-based, Staphylococcus aureus; settings: Staphylococcus aureus, MRSA|NRS119
S. aureus NRS194 (MRSA) [8] = assay: MBC, plating onto TSA; type: cell-based, Staphylococcus aureus; settings: Staphylococcus aureus, MRSA|NRS194
S. aureus NRS107 (MRSA) [9] = assay: MIC, broth microdilution; type: cell-based, Staphylococcus aureus; settings: Staphylococcus aureus, MRSA|NRS107
S. aureus VRS5 (VRSA) [10] = assay: MBC, plating onto TSA; type: cell-based, Staphylococcus aureus; settings: Staphylococcus aureus, VRSA
S. aureus USA300 (MRSA) [11] = assay: MIC, broth microdilution; type: cell-based, Staphylococcus aureus; settings: Staphylococcus aureus, MRSA|USA300
S. aureus VRS1 (VRSA) [12] = assay: MBC, plating onto TSA; type: cell-based, Staphylococcus aureus; settings: Staphylococcus aureus, VRSA
S. aureus VRS5 (VRSA) [13] = assay: MIC, broth microdilution; type: cell-based, Staphylococcus aureus; settings: Staphylococcus aureus, VRSA
[14] = test system: human embryonic kidney (HEK293) cell line; assay: In vitro cytotoxicity, MTS assay; settings: 40 μg/mL
S. aureus USA500 (MRSA) [15] = assay: MIC, broth microdilution; type: cell-based, Staphylococcus aureus; settings: Staphylococcus aureus, MRSA|USA500
S. aureus NRS194 (MRSA) [16] = assay: MIC, broth microdilution; type: cell-based, Staphylococcus aureus; settings: Staphylococcus aureus, MRSA|NRS194
S. aureus NRS1 (VISA) [17] = assay: MBC, plating onto TSA; type: cell-based, Staphylococcus aureus; settings: Staphylococcus aureus, NRS1|VISA
S. aureus NRS19 (VISA) [18] = assay: MIC, broth microdilution; type: cell-based, Staphylococcus aureus; settings: Staphylococcus aureus, NRS19|VISA
S. aureus NRS37 (VISA) [19] = assay: MIC, broth microdilution; type: cell-based, Staphylococcus aureus; settings: Staphylococcus aureus, NRS37|VISA
S. aureus VRS4 (VRSA) [20] = assay: MIC, broth microdilution; type: cell-based, Staphylococcus aureus; settings: Staphylococcus aureus, VRSA
S. aureus USA 400 (MRSA) [21] = assay: MBC, plating onto TSA; type: cell-based, Staphylococcus aureus; settings: Staphylococcus aureus, MRSA|USA400
two VISA isolates = assay: MIC against VISA isolates; type: cell-based; settings: Staphylococcus aureus
S. aureus VRS4 (VRSA) [22] = assay: MBC, plating onto TSA; type: cell-based, Staphylococcus aureus; settings: Staphylococcus aureus, VRSA
S. aureus USA500 (MRSA) [23] = assay: MBC, plating onto TSA; type: cell-based, Staphylococcus aureus; settings: Staphylococcus aureus, MRSA|USA500
S. aureus USA 400 (MRSA) [24] = assay: MIC, broth microdilution; type: cell-based, Staphylococcus aureus; settings: Staphylococcus aureus, MRSA|USA400
S. aureus NRS107 (MRSA) [25] = assay: MBC, plating onto TSA; type: cell-based, Staphylococcus aureus; settings: Staphylococcus aureus, MRSA|NRS107
S. aureus NRS119 (MRSA) [26] = assay: MIC, broth microdilution; type: cell-based, Staphylococcus aureus; settings: Staphylococcus aureus, MRSA|NRS119
S. aureus VRS1 (VRSA) [27] = assay: MIC, broth microdilution; type: cell-based, Staphylococcus aureus; settings: Staphylococcus aureus, VRSA
[28] = Staphylococcus aureus, ATCC43300|MRSA

With CC(=O)c1sc(-c2ccc(-c3ccc(F)cc3)cc2)nc1C [21b, 1-(2-(4′-Fluoro-[1,1′-biphenyl]-4-yl)-4-methylthiazol-5-yl)ethanone] the MIC [1, 28] was > 39.8 µg/mL.

With CCCCc1ccc(-c2nc(C)c(/C(N)=N/O)s2)cc1 [compound 15, (Z)-2-(4-Butylphenyl)-N′-hydroxy-4-methylthiazole-5-carboximidamide] the MIC [1] was >37.0 µg/mL and the MIC [1, 28] was > 35.1 µg/mL.

CCCCc1ccc(-c2nc(C)c(C(N)=O)s2)cc1 [compound 9, 2-(4-Butylphenyl)-4-methylthiazole-5-carboxamide] was tested, and the MIC [1, 28] was > 35.1 µg/mL.

[H]/N=C(\N)NN=C(C)c1sc(-c2ccc(-c3ccc(F)cc3)cc2)nc1C [22b, (E)-2-(1-(2-(4′-Fluoro-[1,1′-biphenyl]-4-yl)-4-methylthiazol-5-yl)ethylidene)hydrazinecarboximidamide] gave an MIC (S. aureus NRS1 (VISA) [2]) of 2.9 µg/mL (≈ 7.89 µM), an MBC (S. aureus NRS19 (VISA) [3]) of 5.9 µg/mL (≈ 16.1 µM) and an MBC [4] of 5.9 µg/mL (≈ 16.1 µM). The MBC (S. aureus USA300 (MRSA) [5]) was 5.9 µg/mL (≈ 16.1 µM), the MBC (S. aureus NRS37 (VISA) [6]) was 5.9 µg/mL (≈ 16.1 µM) and the MBC (S. aureus NRS119 (MRSA) [7]) was 11.7 µg/mL (≈ 31.8 µM). It also gave an MBC (S. aureus NRS194 (MRSA) [8]) of 11.7 µg/mL (≈ 31.8 µM), an MIC (S. aureus NRS107 (MRSA) [9]) of 2.9 µg/mL (≈ 7.89 µM) and an MBC (S. aureus VRS5 (VRSA) [10]) of 2.9 µg/mL (≈ 7.89 µM). It also gave an MIC (S. aureus USA300 (MRSA) [11]) of 5.9 µg/mL (≈ 16.1 µM), an MBC (S. aureus VRS1 (VRSA) [12]) of 2.9 µg/mL (≈ 7.89 µM) and an MIC (S. aureus VRS5 (VRSA) [13]) of 2.9 µg/mL (≈ 7.89 µM). For the same compound, the “toxicity to mammalian cells (MTS assay)” value [14] was “toxic”, the MIC (S. aureus USA500 (MRSA) [15]) was 5.9 µg/mL (≈ 16.1 µM) and the MIC (S. aureus NRS194 (MRSA) [16]) was 5.9 µg/mL (≈ 16.1 µM). For the same compound, the MBC (S. aureus NRS1 (VISA) [17]) was 2.9 µg/mL (≈ 7.89 µM), the MIC (S. aureus NRS19 (VISA) [18]) was 5.9 µg/mL (≈ 16.1 µM) and the MIC (S. aureus NRS37 (VISA) [19]) was 2.9 µg/mL (≈ 7.89 µM). The MIC (S. aureus VRS4 (VRSA) [20]) was 2.9 µg/mL (≈ 7.89 µM), the MBC (S. aureus USA 400 (MRSA) [21]) was 11.7 µg/mL (≈ 31.8 µM) and the MIC (two VISA isolates) was 2.9 to 5.9 µg/mL (≈ 7.89 to 16.1 µM). It also gave an MBC (S. aureus VRS4 (VRSA) [22]) of 2.9 µg/mL (≈ 7.89 µM), an MBC (S. aureus USA500 (MRSA) [23]) of 5.9 µg/mL (≈ 16.1 µM) and an MIC (S. aureus USA 400 (MRSA) [24]) of 5.9 µg/mL (≈ 16.1 µM). The MBC (S. aureus NRS107 (MRSA) [25]) was 5.9 µg/mL (≈ 16.1 µM), the MIC (S. aureus NRS119 (MRSA) [26]) was 5.9 µg/mL (≈ 16.1 µM) and the MIC (S. aureus VRS1 (VRSA) [27]) was 2.9 µg/mL (≈ 7.89 µM). The MIC [1, 28] was 5.9 µg/mL (≈ 16.1 µM).
